Experimental data taken from ChEMBL document CHEMBL3407357, “Inhibiting the deubiquitinating enzymes (DUBs)” (J Med Chem, 2015).

Legend:
[1] = target: Ubiquitin carboxyl-terminal hydrolase 10 (Homo sapiens, UniProt Q14694); assay: Inhibition of USP10 (unknown origin) by Ub-AMC assay
[2] = target: T1, Ubiquitin carboxyl-terminal hydrolase 13 (Homo sapiens, UniProt Q92995); assay: Inhibition of USP13 (unknown origin) by Ub-AMC assay
T1 sequence (Q92995 whole entry): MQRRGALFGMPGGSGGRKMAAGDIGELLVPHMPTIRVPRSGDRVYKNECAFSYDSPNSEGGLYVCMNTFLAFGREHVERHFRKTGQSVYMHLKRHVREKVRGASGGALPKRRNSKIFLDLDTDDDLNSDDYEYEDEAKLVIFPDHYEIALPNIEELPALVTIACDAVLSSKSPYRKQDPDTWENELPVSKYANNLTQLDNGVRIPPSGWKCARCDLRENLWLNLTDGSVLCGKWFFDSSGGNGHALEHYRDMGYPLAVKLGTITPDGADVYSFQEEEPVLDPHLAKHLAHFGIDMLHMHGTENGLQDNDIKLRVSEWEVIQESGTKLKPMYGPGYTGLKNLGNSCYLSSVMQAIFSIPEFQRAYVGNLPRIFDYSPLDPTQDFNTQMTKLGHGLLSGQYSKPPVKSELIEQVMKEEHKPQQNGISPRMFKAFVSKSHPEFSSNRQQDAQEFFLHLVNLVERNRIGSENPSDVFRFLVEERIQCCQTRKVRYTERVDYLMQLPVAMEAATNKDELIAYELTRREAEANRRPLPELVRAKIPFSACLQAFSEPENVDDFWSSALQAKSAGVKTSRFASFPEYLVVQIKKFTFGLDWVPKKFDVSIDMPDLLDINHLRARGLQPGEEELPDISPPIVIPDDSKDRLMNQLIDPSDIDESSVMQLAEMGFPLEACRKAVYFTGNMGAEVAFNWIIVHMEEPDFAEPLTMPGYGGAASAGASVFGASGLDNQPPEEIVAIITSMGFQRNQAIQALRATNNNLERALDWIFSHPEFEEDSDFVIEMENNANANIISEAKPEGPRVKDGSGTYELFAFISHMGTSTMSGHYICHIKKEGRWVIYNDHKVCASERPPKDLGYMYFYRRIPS

[3] = target: T2, Ubiquitin carboxyl-terminal hydrolase 7 (Homo sapiens, UniProt Q93009); assay: Inhibition of USP7 (unknown origin) by Ub-CHOP reporter assay
[4] = Steady state intracellular drug concentration after 1 hr by LC-MS and UV spectroscopy by cell based assay
[5] = target: T3, Ubiquitin carboxyl-terminal hydrolase 1 (Homo sapiens, UniProt O94782); assay: Inhibition of USP1 (unknown origin) by Ub-AMC assay
T3 sequence (O94782 whole entry): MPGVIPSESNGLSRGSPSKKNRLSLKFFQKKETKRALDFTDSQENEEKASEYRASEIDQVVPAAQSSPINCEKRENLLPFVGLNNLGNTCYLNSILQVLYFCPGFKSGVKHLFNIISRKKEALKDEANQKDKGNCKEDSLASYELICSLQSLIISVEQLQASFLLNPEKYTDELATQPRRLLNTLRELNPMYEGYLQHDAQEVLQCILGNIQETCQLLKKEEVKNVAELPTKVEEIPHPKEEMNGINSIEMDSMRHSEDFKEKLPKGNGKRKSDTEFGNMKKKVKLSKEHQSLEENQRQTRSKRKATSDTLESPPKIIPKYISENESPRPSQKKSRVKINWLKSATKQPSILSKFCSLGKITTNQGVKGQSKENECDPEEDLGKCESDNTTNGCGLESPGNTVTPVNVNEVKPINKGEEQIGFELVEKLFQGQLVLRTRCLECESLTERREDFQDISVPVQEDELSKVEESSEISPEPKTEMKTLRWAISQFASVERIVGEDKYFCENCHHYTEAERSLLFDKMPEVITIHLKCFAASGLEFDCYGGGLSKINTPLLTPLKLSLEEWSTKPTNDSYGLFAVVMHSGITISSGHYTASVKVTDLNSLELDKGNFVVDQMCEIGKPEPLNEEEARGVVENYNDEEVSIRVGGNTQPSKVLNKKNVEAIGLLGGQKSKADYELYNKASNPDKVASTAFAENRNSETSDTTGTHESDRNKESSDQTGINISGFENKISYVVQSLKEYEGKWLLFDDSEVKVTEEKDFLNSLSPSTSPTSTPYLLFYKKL

[6] = target: T2, Ubiquitin carboxyl-terminal hydrolase 7; assay: Inhibition of USP7 (unknown origin) by Ub-AMC assay
[7] = target: T2, Ubiquitin carboxyl-terminal hydrolase 7; assay: Inhibition of USP7 in multiple myeloma cells (unknown origin) by immunohistochemistry; type: cell-based

T2 sequence (Q93009 whole entry): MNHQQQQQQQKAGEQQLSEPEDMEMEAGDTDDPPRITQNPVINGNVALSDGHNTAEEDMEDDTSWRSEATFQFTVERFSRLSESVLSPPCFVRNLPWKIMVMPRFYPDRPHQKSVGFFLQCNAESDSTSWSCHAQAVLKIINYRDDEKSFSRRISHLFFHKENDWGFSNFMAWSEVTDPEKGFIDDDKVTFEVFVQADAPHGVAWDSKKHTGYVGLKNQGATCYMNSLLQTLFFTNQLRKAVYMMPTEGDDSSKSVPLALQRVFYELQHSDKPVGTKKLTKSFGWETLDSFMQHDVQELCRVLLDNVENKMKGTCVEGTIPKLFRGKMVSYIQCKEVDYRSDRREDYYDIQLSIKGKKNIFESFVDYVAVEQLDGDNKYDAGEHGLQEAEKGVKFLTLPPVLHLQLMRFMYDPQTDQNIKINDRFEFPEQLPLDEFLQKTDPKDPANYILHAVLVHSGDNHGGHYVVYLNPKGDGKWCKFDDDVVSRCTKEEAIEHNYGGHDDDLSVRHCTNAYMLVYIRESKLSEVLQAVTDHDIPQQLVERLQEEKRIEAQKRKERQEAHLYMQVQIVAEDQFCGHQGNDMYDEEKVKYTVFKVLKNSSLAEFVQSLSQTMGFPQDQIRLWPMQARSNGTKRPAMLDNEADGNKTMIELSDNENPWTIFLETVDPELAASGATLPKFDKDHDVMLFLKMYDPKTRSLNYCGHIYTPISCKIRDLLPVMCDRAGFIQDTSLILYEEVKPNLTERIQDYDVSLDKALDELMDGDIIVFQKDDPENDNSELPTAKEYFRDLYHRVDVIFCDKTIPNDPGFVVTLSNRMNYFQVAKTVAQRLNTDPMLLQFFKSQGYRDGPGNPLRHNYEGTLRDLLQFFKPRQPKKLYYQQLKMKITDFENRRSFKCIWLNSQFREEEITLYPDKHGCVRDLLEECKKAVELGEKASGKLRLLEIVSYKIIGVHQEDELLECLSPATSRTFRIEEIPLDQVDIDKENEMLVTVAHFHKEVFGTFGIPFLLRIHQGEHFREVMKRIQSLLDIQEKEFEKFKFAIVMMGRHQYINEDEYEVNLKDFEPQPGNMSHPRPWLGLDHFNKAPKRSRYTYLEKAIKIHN
Ubiquitin carboxyl-terminal hydrolase 10, sequence (Q14694 whole entry): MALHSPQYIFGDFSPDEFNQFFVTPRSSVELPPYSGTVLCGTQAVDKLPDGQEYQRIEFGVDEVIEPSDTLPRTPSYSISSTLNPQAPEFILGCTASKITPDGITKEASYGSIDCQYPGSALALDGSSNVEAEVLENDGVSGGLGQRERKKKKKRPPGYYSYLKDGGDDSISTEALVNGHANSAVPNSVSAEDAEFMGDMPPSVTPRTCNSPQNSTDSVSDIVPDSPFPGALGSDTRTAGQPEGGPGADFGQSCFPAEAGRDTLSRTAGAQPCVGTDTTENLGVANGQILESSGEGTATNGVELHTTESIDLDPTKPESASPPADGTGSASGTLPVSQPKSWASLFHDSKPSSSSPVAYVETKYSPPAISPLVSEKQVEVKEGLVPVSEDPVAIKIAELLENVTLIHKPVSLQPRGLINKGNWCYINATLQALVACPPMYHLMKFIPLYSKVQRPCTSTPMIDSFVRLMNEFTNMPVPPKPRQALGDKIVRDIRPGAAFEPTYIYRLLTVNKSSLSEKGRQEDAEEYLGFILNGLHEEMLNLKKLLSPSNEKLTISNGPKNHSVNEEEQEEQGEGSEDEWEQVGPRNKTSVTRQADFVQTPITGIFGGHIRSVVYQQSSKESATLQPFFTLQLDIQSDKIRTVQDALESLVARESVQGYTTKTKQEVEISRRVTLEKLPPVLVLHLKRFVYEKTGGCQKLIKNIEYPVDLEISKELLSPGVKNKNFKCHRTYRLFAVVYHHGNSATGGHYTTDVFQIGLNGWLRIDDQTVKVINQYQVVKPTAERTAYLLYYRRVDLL

`Fc1ccc(CNc2ncnc3ccc(F)cc23)cc1` gave an IC50 [1] of 0.6 µM and an IC50 [2] of 0.6 µM.
`CC(=O)c1cc([N+](=O)[O-])c(Sc2cccc(Cl)c2Cl)s1` gave an EC50 [3] of 8 µM.
With `Cc1cc(C(=O)CN2CCCC2)c(C)n1-c1ccc(F)cc1` the Drug uptake [4] was 13 µM.
Molecule `O=C1c2ccccc2C(=O)c2oc(-c3ccccc3)nc21` has an IC50 [5] of 0.544 µM.
In the case of `N#Cc1nc2c(nc1C#N)-c1cc(Cl)ccc1C2=O`, the IC50 [6] is reported as 0.42 µM.
`O=[N+]([O-])c1cc(CCO)sc1Sc1cccc(Cl)c1Cl` gave an EC50 [7] of 20.1 µM.
